Source: US20240059753A1, “COMPOSITIONS INCLUDING MULTI-AGONIST PEPTIDES AND METHODS OF MANUFACTURE AND USE” (Pep2Tango Therapeutics Inc., priority 2022, published 2024)
Counter-ions that a name gives are not always drawn. One block for each compound: values may come before it.

Columns and labels:
lean mice = test: Acute food intake in lean mice after single s.c. administration; type: in vivo, C57BL/6j male mice; details: mean ± SEM
Procedure: (§1) Differences were considered statistically significant at p<0.05. Data analysis was carried out with GraphPad software (GraphPad Prism).

lean rats = test: Acute food intake and body weight reduction in lean rats; type: in vivo, Sprague Dawley male rats; details: single s.c. 10 nmol/Kg, mean ± SEM
Procedure: Food intake was measured at different time-intervals post-injection up to 72 h using a precision balance. Cumulative food intake was calculated for the indicated time-periods. Body weight was measured at the indicated time-periods. Mean of cumulative food intake in each dose group was compared to vehicle and reported as a percentage of mean reduction relative to vehicle.
All data shown are the mean±standard error (SEM).

Human GLP-1R [1] = target: T1, Human GLP-1R (Homo sapiens, UniProt P43220); test: GPCR cell-based cAMP assay, human GLP-1 receptor; parameters: expressed in transfected cells; host or cells: CHO-K1, stably transfected; details: stably transfected CHO-Kl cells, 0.1% casein
Procedure: (§2) Experimental protocol: Cells were seeded in a total volume of 20 μL into white walled, 384-well microplates and incubated at 37° C. overnight prior to testing. Prior to testing cell plating media was exchanged with 10 μL of Assay buffer (HBSS+10 mM HEPES). All compounds were run in assay buffer containing 0.1% casein. Briefly, intermediate dilution of sample stocks was performed to generate 4× sample in assay buffer. 5 μL of 4× sample was added to cells and incubated at 37° C. for 30 minutes. Final assay vehicle concentration was 1%. […] Microplates were read following signal generation with PerkinElmer Envision instrument for chemiluminescent signal detection.
(§3) The results are expressed as a percent efficacy relative to the maximum response of the control ligand.
Target sequence in this assay (P43220 24-463): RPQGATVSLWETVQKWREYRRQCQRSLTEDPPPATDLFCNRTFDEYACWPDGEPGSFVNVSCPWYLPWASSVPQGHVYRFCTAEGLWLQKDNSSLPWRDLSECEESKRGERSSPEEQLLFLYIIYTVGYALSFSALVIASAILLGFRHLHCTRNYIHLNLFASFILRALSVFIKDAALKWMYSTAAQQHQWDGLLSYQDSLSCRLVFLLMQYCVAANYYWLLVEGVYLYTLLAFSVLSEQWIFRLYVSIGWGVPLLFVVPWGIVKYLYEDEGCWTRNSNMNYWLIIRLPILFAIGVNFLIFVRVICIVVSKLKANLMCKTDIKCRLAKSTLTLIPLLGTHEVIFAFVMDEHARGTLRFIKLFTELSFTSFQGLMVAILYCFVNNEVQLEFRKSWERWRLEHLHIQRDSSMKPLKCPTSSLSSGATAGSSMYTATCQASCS

DIO mice = test: Food intake and body weight after repeated dosing in DIO mice; type: in vivo, C57BL/6j male mice; details: daily injection 10 nmol/kg for 20 days
Procedure: as §1

4 h fasted mice = test: Blood glucose after single administration of peptides; type: in vivo; details: 4 h fasted mice, single s.c. 10 nmol/Kg, mean ± SEM
Procedure: as §1

Human GIPR = target: T2, Human GIPR (Homo sapiens, UniProt P48546); test: GPCR cell-based cAMP assay, human GIP receptor; details: stably transfected CHO-Kl cells, 0.1% casein
T2 construct: expressed in transfected cells; host or cells: CHO-K1, stably transfected
T2 sequence (P48546 22-466): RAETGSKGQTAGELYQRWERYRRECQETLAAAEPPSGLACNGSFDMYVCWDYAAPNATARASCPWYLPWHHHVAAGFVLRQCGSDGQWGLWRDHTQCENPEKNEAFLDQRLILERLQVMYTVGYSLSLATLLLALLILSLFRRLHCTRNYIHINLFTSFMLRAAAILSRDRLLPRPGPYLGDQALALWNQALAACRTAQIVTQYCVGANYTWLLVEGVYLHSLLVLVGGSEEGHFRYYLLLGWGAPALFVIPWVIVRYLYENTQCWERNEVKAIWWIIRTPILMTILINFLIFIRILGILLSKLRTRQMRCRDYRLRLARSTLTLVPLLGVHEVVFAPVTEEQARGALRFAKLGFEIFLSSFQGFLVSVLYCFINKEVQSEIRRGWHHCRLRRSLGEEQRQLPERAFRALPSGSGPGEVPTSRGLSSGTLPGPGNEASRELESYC
Procedure: as §2, §3

Human CalcitoninR = target: T3, Human CalcitoninR (Homo sapiens, UniProt P30988); test: GPCR cell-based cAMP assay, human calcitonin receptor; details: stably transfected CHO-Kl cells, 0.1% casein
T3 construct: expressed in transfected cells; host or cells: CHO-K1, stably transfected
T3 sequence (P30988 25-474): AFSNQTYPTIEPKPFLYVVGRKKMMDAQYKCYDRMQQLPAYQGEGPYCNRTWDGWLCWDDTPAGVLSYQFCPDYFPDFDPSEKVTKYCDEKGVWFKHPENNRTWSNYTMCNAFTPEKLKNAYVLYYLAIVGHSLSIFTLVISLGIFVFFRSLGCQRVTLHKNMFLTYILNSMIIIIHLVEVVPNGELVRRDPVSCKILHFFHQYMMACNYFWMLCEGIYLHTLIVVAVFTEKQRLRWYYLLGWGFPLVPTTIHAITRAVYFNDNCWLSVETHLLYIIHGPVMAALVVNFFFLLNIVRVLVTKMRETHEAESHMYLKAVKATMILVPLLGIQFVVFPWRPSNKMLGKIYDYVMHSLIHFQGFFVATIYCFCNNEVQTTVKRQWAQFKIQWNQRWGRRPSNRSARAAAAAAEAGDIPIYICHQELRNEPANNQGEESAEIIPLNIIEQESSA
Procedure: as §2, §3

Human Calc/RAMP3R (AMY3) = target: T4, Human Calc/RAMP3R (AMY3) (Homo sapiens, UniProt O60896+P30988); test: GPCR cell-based cAMP assay, human AMY3 receptor; details: stably transfected CHO-Kl cells, 0.1% casein
T4 construct: expressed in transfected cells; host or cells: CHO-K1, stably transfected
T4 sequence (P30988 25-474): T3 sequence (P30988 25-474)
T4 sequence (O60896 24-148 partner): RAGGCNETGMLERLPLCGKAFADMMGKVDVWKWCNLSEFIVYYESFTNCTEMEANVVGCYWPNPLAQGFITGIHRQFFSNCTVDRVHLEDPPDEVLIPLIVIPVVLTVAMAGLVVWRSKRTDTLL
Procedure: as §2, §3

[2] = target: T5, human calcitonin receptor (human) (UniProt P30988); test: cell-based or functional assay
T5 sequence (looked up): T3 sequence (P30988 25-474)

Human GLP-1R [3] = target: T1, Human GLP-1R; test: cell-based or functional assay
[4] = target: T6, human GIP receptor (human) (UniProt P48546); test: cell-based or functional assay
T6 sequence (looked up): T2 sequence (P48546 22-466)

- EC50 (Human GLP-1R [1]): 0.438 nM
- EC50 (Human GIPR): 0.121 nM
- EC50 (Human CalcitoninR): 0.185 nM
- EC50 (Human Calc/RAMP3R (AMY3)): 0.353 nM
Compound: CC[C@H](C)[C@H](NC(=O)[C@H](CC(C)C)NC(=O)[C@H](Cc1c[nH]c2ccccc12)NC(=O)[C@H](CCC(N)=O)NC(=O)[C@@H](NC(=O)[C@H](Cc1ccccc1)NC(=O)[C@H](C)NC(=O)[C@H](CCC(N)=O)NC(=O)[C@H](CCC(N)=O)NC(=O)[C@H](C)NC(=O)[C@@H](NC(=O)[C@H](CCCCN)NC(=O)[C@H](CC(=O)O)NC(=O)[C@H](CC(C)C)NC(=O)C(C)(C)NC(=O)[C@@H](NC(=O)[C@H](CO)NC(=O)[C@H](Cc1ccc(O)cc1)NC(=O)[C@H](CC(=O)O)NC(=O)[C@H](CO)NC(=O)[C@@H](NC(=O)[C@H](Cc1ccccc1)NC(=O)[C@@H](NC(=O)CNC(=O)[C@H](CCC(=O)O)NC(=O)C(C)(C)NC(=O)[C@@H](N)Cc1ccc(O)cc1)[C@@H](C)O)[C@@H](C)O)[C@@H](C)CC)[C@@H](C)CC)C(C)C)C(=O)N[C@@H](C)C(=O)NCC(=O)NCC(=O)N1CCC[C@H]1C(=O)N[C@@H](CO)C(=O)N[C@@H](CCCCN)C(=O)N[C@H]1CSSC[C@@H](C(=O)N[C@H](C(=O)N[C@@H](CC(C)C)C(=O)NCC(=O)N[C@@H](CCCNC(=N)N)C(=O)N[C@@H](CC(C)C)C(=O)N[C@@H](CO)C(=O)N[C@@H](CCC(N)=O)C(=O)N[C@@H](CCC(=O)O)C(=O)N[C@@H](CC(C)C)C(=O)N[C@@H](Cc2c[nH]cn2)C(=O)N[C@@H](CCCNC(=N)N)C(=O)N[C@@H](CC(C)C)C(=O)N[C@@H](CCC(N)=O)C(=O)N[C@H](C(=O)N[C@@H](Cc2ccc(O)cc2)C(=O)N2CCC[C@H]2C(=O)N[C@@H](CCCNC(=N)N)C(=O)N[C@H](C(=O)N[C@@H](CC(N)=O)C(=O)N[C@H](C(=O)NCC(=O)N[C@@H](CCCCNC(=O)COCCOCCNC(=O)COCCOCCNC(=O)CC[C@H](NC(=O)CCCCCCCCCCCCCCCCC(=O)O)C(=O)O)C(=O)N[C@@H](CC(N)=O)C(=O)N[C@H](C(=O)N[C@@H](Cc2ccc(O)cc2)C(N)=O)[C@@H](C)O)[C@@H](C)O)[C@@H](C)O)[C@@H](C)O)C(C)C)NC(=O)[C@H]([C@@H](C)O)NC(=O)[C@H](C)NC(=O)[C@H]([C@@H](C)O)NC(=O)[C@H](CC(N)=O)NC1=O [SEQ ID NO. 47, Y-Aib-E-G-T-F-T-S-D-Y-S-I-Aib-LDKIAQQAFVQWLIAGGPSKCNTATCVLGRLSQELHRLQTYPRTNTGK*-N-T-Y-NH2-acetate salt (wherein K* = Lys(AEEAc-AEEAc-γ-Glu-17-carboxyheptadecanoyl))]
- Cumulative food intake reduction relative to vehicle (lean mice; Table 12, 10 nmol/Kg, 8 H): 64.7 ± 2.16 %
- Cumulative food intake reduction relative to vehicle (lean mice; Table 12, 10 nmol/Kg, 24 H): 65.4 ± 1.53 %
- Cumulative food intake reduction relative to vehicle (lean mice; Table 12, 10 nmol/Kg, 48 H): 42.3 ± 1.61 %
- Cumulative food intake reduction relative to vehicle (lean mice; Table 12, 10 nmol/Kg, 72 H): 26.0 ± 2.27 %
- Cumulative food intake reduction relative to vehicle (lean mice; Table 13, 10 nmol/Kg, 8 H): 62.5 ± 2.81 %
- Cumulative food intake reduction relative to vehicle (lean mice; Table 13, 10 nmol/Kg, 24 H): 49.0 ± 5.24 %
- Cumulative food intake reduction relative to vehicle (lean mice; Table 13, 10 nmol/Kg, 48 H): 28.0 ± 3.62 %
- Cumulative food intake reduction relative to vehicle (lean mice; Table 13, 10 nmol/Kg, 72 H): 14.8 ± 2.78 %
- Cumulative food intake reduction relative to vehicle (lean mice; Table 13, 30 nmol/Kg, 8 H): 83.6 ± 2.44 %
- Cumulative food intake reduction relative to vehicle (lean mice; Table 13, 30 nmol/Kg, 24 H): 64.5 ± 4.61 %
- Cumulative food intake reduction relative to vehicle (lean mice; Table 13, 30 nmol/Kg, 48 H): 36.7 ± 2.82 %
- Cumulative food intake reduction relative to vehicle (lean mice; Table 13, 30 nmol/Kg, 72 H): 25.2 ± 2.60 %
- Cumulative food intake reduction vs vehicle (lean rats; 4 H): 14.0 ± 7.72%
- Cumulative food intake reduction vs vehicle (lean rats; 12 H): 40.6 ± 4.52 %
- Cumulative food intake reduction vs vehicle (lean rats; 24 H): 40.8 ± 4.23 %
- Cumulative food intake reduction vs vehicle (lean rats; 48 H): 30.1 ± 3.03 %
- Cumulative food intake reduction vs vehicle (lean rats; 72 H): 14.3 ± 2.53 %
- Food intake reduction by intervals vs vehicle (lean rats; interval 0-4 H): 14.0 ± 7.72%
- Food intake reduction by intervals vs vehicle (lean rats; interval 4-12 H): 48.7 ± 5.41 %
- Food intake reduction by intervals vs vehicle (lean rats; interval 12-24 H): 42.9 ± 9.15 %
- Food intake reduction by intervals vs vehicle (lean rats; interval 24-48 H): 19.3 ± 2.41 %
- Food intake reduction by intervals vs vehicle (lean rats; interval 48-72 H): −23.3 ± 4.52 %
- Effect on fasting insulin (DIO mice; 4 h fasted, FIG. 5): reduced
- Effect on fasting serum glucose (DIO mice; 4 h fasted, FIG. 5): reduced
- Effect on food intake in DIO mice (DIO mice; FIG. 2): reduce
- Effect on body weight in DIO mice (DIO mice; FIG. 3): reduce
- Effect on fat mass, assessed by MRI (DIO mice; FIG. 4): reduction of fat mass
- Blood glucose, 120 min (4 h fasted mice; 120 min after injection): 102.2 ± 4.08 mg/dL
- Blood glucose, 240 min (4 h fasted mice; 240 min after injection): 77.0 ± 3.75 mg/dL
- Blood glucose, Time 0 (4 h fasted mice; Time 0 (baseline)): 174.7 ± 3.62 mg/dL

- EC50 (nM), cell-based cAMP assay, CHO-K1 cells [2]: 0.026 nM
Compound: Calcitonin (peptide)

Compound: Exendin-4 (from UniProt P26349 48-86) (peptide)
- EC50 (nM), cell-based cAMP assay, CHO-K1 cells (Human GLP-1R [3]): 0.002 nM

- EC50 (nM), cell-based cAMP assay, CHO-K1 cells [4]: 0.075 nM
Compound: GIP (peptide)
